Values joined by “and” are separate entries in the source; they are usually repeats but may differ in a detail not shown here. Identical values can stand only once. Like-named read-outs stand apart in the source and are kept apart here.
Key:
human Mdm2 1–125 = biological target: T1, human Mdm2 1–125 (Homo sapiens, UniProt Q00987); assay: Mdm2 binding assay (competitive fluorescence anisotropy/polarization); details: competitive fluorescence polarization, read-out: Mdm2 (nM), Mdm2 binding (Kd)
T1 construct: GST (N); His6 (internal); TEV cleavage site ENLYFQG (internal); made in house; host or cells: Escherichia coli BL21 (DE3) Rosetta T1R
Method: The TEV (tobacco etch virus) cleavage site was changed from ENLYFQS to ENLYFQG to give a fusion protein with the following sequence:
Titrations were carried out with the concentration of Mdm2 held constant at 250 nM and the labeled peptide at 50 nM. The competing molecules were then titrated against the complex of the FAM-labeled peptide and protein. Apparent Kd values were determined by fitting the experimental data to the equations shown below:(2) r=r0+(rb−r0)×2(d^2−3e)cos(θ/3)−9/3Kd1+2(d^2−3e)cos(θ/3)−dd=Kd1+Kd2+[L]st+[L]t−[P]te=([L]t−[P]t)Kd1+([L]st−[P]t)Kd2+Kd1Kd2f=−Kd1Kd2[P]tθ=arcos[−2d^3+9de−27f/2(d^2−3e)^3] where [L]st and [L]t denote labeled ligand and total unlabeled ligand input concentrations, respectively. Kd2 is the dissociation constant of the interaction between the unlabeled ligand and the protein. In all competition experiments, it was assumed that [P]t > [L]st, otherwise considerable amounts of free labeled ligand would always be present and would interfere with measurements. Kd1 is the apparent Kd for the labeled peptide used and was experimentally determined as described in the previous paragraph. The FAM-labeled peptide was dissolved in dimethyl sulfoxide (DMSO) at 1 mM and diluted into the experimental buffer. Readings were carried out with an Envision Multilabel Reader (PerkinElmer). Experiments were carried out in PBS (2.7 mM KCl, 137mM NaCl, 10 mM Na2HPO4, and 2 mM KH2PO4 (pH 7.4)) and 0.1% Tween 20 buffer. All titrations were carried out in triplicate. Curve-fitting was carried out using Prism 4.0 (GraphPad). […] Negative control titrations of the ligands under investigation were also carried out with the fluorescently labeled peptide (in the absence of Mdm2) to ensure no interactions were occurring between the ligands and the FAM-labeled peptide.

[1] = system: p53 responsive β-lactamase reporter in HCT116 cells; assay: p53 beta-lactamase reporter gene cellular functional assay; assay type: cell-based; details: p53 reporter assay, HCT116, read-out: Cellular (µM), cellular activity (EC50)
Method: HCT116 cells were stably transfected with a p53 responsive β-lactamase reporter and were seeded into a 384-well plate at a density of 8000 cells per well. Cells were maintained in McCoy’s 5A Medium with 10% fetal bovine serum (FBS), Blasticidin, and Penicillin/Streptomycin. The cells were incubated overnight, followed by removal of cell growth media and replacement with Opti-MEM either containing 0% FBS or 10% FBS. […] The final working concentration of DMSO was 0.5%. β-lactamase activity was detected using the ToxBLAzer Dual Screen (Invitrogen), as per the manufacturer’s instructions. Measurements were made using the Envision multiplate reader (Perkin–Elmer).

[2] = Circular dichroism (CD) α-helicity; assay type: physicochemical; details: for Helicity (%): CD of free peptide, 25 °C, 1 mM Hepes pH 7.4, 5% methanol
Method: A total of 5 µL of the 10 mM stock peptide was mixed with 45 µL of 100% methanol, and dried for 2 h in the SpeedVac concentrator (Thermo Scientific). The dried peptide was reconstituted in a buffer (1 mM Hepes pH 7.4 and 5% methanol) to a concentration of 1 mM. The peptide sample was placed in a quartz cuvette with a path length of 0.2 cm. The peptide concentration was determined by the absorbance of the peptide at […]. The CD spectrum was recorded from 300 to 190 nm using the Chirascan-plus qCD machine (Applied Photophysics, Surrey, UK), at 25 °C. All experiments were done in duplicates. The CD spectrum was converted to mean residue ellipticity, before deconvolution and estimation of the secondary structure components of the peptide using the CDNN software (distributed by Applied Photophysics).

T1 sequence (Q00987 with tags, fused parts or gaps): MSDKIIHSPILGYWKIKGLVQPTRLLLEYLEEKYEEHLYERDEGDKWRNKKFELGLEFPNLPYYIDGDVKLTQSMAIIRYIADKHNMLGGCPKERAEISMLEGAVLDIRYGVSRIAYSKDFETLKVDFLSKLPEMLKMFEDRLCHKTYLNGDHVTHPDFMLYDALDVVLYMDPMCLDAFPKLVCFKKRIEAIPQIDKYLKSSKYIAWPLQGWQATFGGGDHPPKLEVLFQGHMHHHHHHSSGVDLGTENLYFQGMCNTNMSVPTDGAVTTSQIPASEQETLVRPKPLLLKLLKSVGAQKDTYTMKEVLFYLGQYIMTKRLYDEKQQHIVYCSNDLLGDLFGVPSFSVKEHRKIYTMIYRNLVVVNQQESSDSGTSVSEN

SMILES	Kd (human Mdm2 1–125; Table 2) [nM]	EC50 ([1]; Table 2) [µM]	Helicity (%) ([2]; Table 2)	Kd (human Mdm2 1–125; Table 1) [nM]	EC50 ([1]; Table 1) [µM]	Helicity (%) ([2]; Table 1)	α-helicity by CD [2] [%]	α-helicity by CD ([2]; listed as Pro^9)
CC(=O)N[C@@H](CCCCN=[N+]=[N-])C(=O)NCCC(=O)N[C@@H](CC(C)C)C(=O)N[C@H](C(=O)N[C@@H](Cc1ccccc1)C(=O)N[C@]1(C)CCCCCCC=CCCC[C@@](C)(C(=O)N[C@@H](CO)C(=O)N(C)[C@@H](C)C(=O)N[C@@H](C)C(N)=O)NC(=O)[C@H](CC2CCC2)NC(=O)[C@H](CCC(N)=O)NC(=O)[C@H](C)NC(=O)[C@H](Cc2c[nH]c3ccccc23)NC(=O)[C@H](Cc2ccc(O)cc2)NC(=O)[C@H](CCC(=O)O)NC1=O)[C@@H](C)O [A13(N-methyl L-Ala)]	10	1.6	38.6	–	–	–	–	–
CC(=O)N[C@H](CC(C)C)C(=O)N[C@H](C(=O)N[C@@H](Cc1ccccc1)C(=O)NC(C)(C)C(=O)N[C@@H](CCC(=O)O)C(=O)N[C@@H](Cc1ccc(O)cc1)C(=O)N[C@@H](Cc1c[nH]c2ccccc12)C(=O)N[C@@H](CCC(N)=O)C(=O)N[C@@H](CC(C)C)C(=O)N[C@@H](CC1CCC1)C(=O)NC(C)(C)C(=O)N[C@@H](CO)C(=O)N[C@@H](C)C(=O)N[C@@H](C)C(N)=O)[C@@H](C)O [Linear L1(D-Leu)]	–	–	–	277	> 50	37.2	–	–
CC(=O)N[C@@H](CCCCN=[N+]=[N-])C(=O)NCCC(=O)N[C@@H](CC(C)C)C(=O)N[C@H](C(=O)N[C@@H](Cc1ccccc1)C(=O)N[C@]1(C)CCCCCCC=CCCC[C@@](C)(C(=O)N[C@@H](CO)C(=O)N[C@@H](C)C(=O)N[C@@H](C)C(N)=O)NC(=O)[C@H](CC2CCC2)NC(=O)[C@H](CCC(N)=O)NC(=O)[C@H](C)N(C)C(=O)[C@H](Cc2c[nH]c3ccccc23)NC(=O)[C@H](Cc2ccc(O)cc2)NC(=O)[C@H](CCC(=O)O)NC1=O)[C@@H](C)O [A8(N-methyl L-Ala)]	671	> 50	16.9	–	–	–	< 30	–
CC(=O)N[C@@H](CCCCN=[N+]=[N-])C(=O)NCCC(=O)NCC(=O)N[C@H](C(=O)N[C@@H](Cc1ccccc1)C(=O)N[C@]1(C)CCCCCCC=CCCC[C@@](C)(C(=O)N[C@@H](CO)C(=O)N[C@@H](C)C(=O)N[C@@H](C)C(N)=O)NC(=O)[C@H](CC2CCC2)NC(=O)[C@H](CCC(N)=O)NC(=O)[C@H](C)NC(=O)[C@H](Cc2c[nH]c3ccccc23)NC(=O)[C@H](Cc2ccc(O)cc2)NC(=O)[C@H](CCC(=O)O)NC1=O)[C@@H](C)O [Peptide L1G]	22.1	1.6	44.6	–	–	–	–	–
CC(=O)N[C@@H](CC(C)C)C(=O)N[C@H](C(=O)N[C@@H](Cc1ccccc1)C(=O)NC(C)(C)C(=O)N[C@@H](CCC(=O)O)C(=O)N[C@@H](Cc1ccc(O)cc1)C(=O)N[C@@H](Cc1c[nH]c2ccccc12)C(=O)N[C@H](CCC(N)=O)C(=O)N[C@@H](CC(C)C)C(=O)N[C@@H](CC1CCC1)C(=O)NC(C)(C)C(=O)N[C@@H](CO)C(=O)N[C@@H](C)C(=O)N[C@@H](C)C(N)=O)[C@@H](C)O [Linear Q8(D-Gln)]	–	–	–	119	> 50	21.8	–	–
CC(=O)N[C@@H](CC(C)C)C(=O)N[C@H](C(=O)N[C@@H](Cc1ccccc1)C(=O)N[C@]1(C)CCCCCCC=CCCC[C@@](C)(C(=O)N[C@@H](CO)C(=O)N[C@@H](C)C(=O)N[C@@H](C)C(N)=O)NC(=O)[C@H](CC2CCC2)NC(=O)[C@@H](CC(C)C)NC(=O)[C@H](CCC(N)=O)NC(=O)[C@H](Cc2c[nH]c3ccccc23)NC(=O)[C@H](Cc2ccc(O)cc2)NC(=O)[C@H](CCC(=O)O)NC1=O)[C@@H](C)O [L9(D-Leu)]	–	–	–	30	1.1	39.0	–	–
CC(=O)N[C@@H](CC(C)C)C(=O)N[C@H](C(=O)N[C@@H](Cc1ccccc1)C(=O)N[C@]1(C)CCCCCCC=CCCC[C@@](C)(C(=O)N[C@@H](CO)C(=O)N[C@H](C)C(=O)N[C@@H](C)C(N)=O)NC(=O)[C@H](CC2CCC2)NC(=O)[C@H](CC(C)C)NC(=O)[C@H](CCC(N)=O)NC(=O)[C@H](Cc2c[nH]c3ccccc23)NC(=O)[C@H](Cc2ccc(O)cc2)NC(=O)[C@H](CCC(=O)O)NC1=O)[C@@H](C)O [A13(D-Ala)]	–	–	–	17	0.6	41.8	–	–
CC(=O)N[C@@H](CC(C)C)C(=O)N[C@H](C(=O)N[C@@H](Cc1ccccc1)C(=O)N[C@]1(C)CCCCCCC=CCCC[C@@](C)(C(=O)N[C@@H](CO)C(=O)N[C@@H](C)C(=O)N[C@@H](C)C(N)=O)NC(=O)[C@H](CC2CCC2)NC(=O)[C@H](CC(C)C)NC(=O)[C@H](C)NC(=O)[C@H](Cc2c[nH]c3ccccc23)NC(=O)[C@H](Cc2ccc(O)cc2)NC(=O)[C@H](CCC(=O)O)NC1=O)[C@@H](C)O [Peptide Q8A]	–	–	–	26.5	0.1	33.4	–	–

Next, values leading:

Kd (human Mdm2 1–125; Table 2) [nM]	EC50 ([1]; Table 2) [µM]	Helicity (%) ([2]; Table 2)	Kd (human Mdm2 1–125; Table 1) [nM]	EC50 ([1]; Table 1) [µM]	Helicity (%) ([2]; Table 1)	α-helicity by CD [2] [%]	α-helicity by CD ([2]; listed as Pro^9)	SMILES
–	–	–	136	3.4	40.7	–	–	CC(=O)N[C@@H](CC(C)C)C(=O)N[C@@H](C(=O)N[C@@H](Cc1ccccc1)C(=O)N[C@]1(C)CCCCCCC=CCCC[C@@](C)(C(=O)N[C@@H](CO)C(=O)N[C@@H](C)C(=O)N[C@@H](C)C(N)=O)NC(=O)[C@H](CC2CCC2)NC(=O)[C@H](CC(C)C)NC(=O)[C@H](CCC(N)=O)NC(=O)[C@H](Cc2c[nH]c3ccccc23)NC(=O)[C@H](Cc2ccc(O)cc2)NC(=O)[C@H](CCC(=O)O)NC1=O)[C@H](C)O [T2(D-Thr)]
–	–	–	8.6	1.2	41.2	–	–	CC(=O)N[C@@H](CC(C)C)C(=O)N[C@H](C(=O)N[C@@H](Cc1ccccc1)C(=O)N[C@]1(C)CCCCCCC=CCCC[C@@](C)(C(=O)N[C@H](CO)C(=O)N[C@@H](C)C(=O)N[C@@H](C)C(N)=O)NC(=O)[C@H](CC2CCC2)NC(=O)[C@H](CC(C)C)NC(=O)[C@H](CCC(N)=O)NC(=O)[C@H](Cc2c[nH]c3ccccc23)NC(=O)[C@H](Cc2ccc(O)cc2)NC(=O)[C@H](CCC(=O)O)NC1=O)[C@@H](C)O [S12(D-Ser)]
77.1	3.1	27.4	–	–	–	–	< 30% and 27.4%	CC(=O)N[C@@H](CCCCN=[N+]=[N-])C(=O)NCCC(=O)N[C@@H](CC(C)C)C(=O)N[C@H](C(=O)N[C@@H](Cc1ccccc1)C(=O)N[C@]1(C)CCCCCCC=CCCC[C@@](C)(C(=O)N[C@@H](CO)C(=O)N[C@@H](C)C(=O)N[C@@H](C)C(N)=O)NC(=O)[C@H](CC2CCC2)NC(=O)[C@@H]2CCCN2C(=O)[C@H](C)NC(=O)[C@H](Cc2c[nH]c3ccccc23)NC(=O)[C@H](Cc2ccc(O)cc2)NC(=O)[C@H](CCC(=O)O)NC1=O)[C@@H](C)O [Peptide Q9P]
45.7	3.7	30.8	–	–	–	–	–	CC(=O)N[C@@H](CCCCN=[N+]=[N-])C(=O)NCCC(=O)N[C@@H](CC(C)C)C(=O)N[C@H](C(=O)N[C@@H](Cc1ccccc1)C(=O)N[C@]1(C)CCCCCCC=CCCC[C@@](C)(C(=O)N2CCC[C@H]2C(=O)N[C@@H](C)C(=O)N[C@@H](C)C(N)=O)NC(=O)[C@H](CC2CCC2)NC(=O)[C@H](CCC(N)=O)NC(=O)[C@H](C)NC(=O)[C@H](Cc2c[nH]c3ccccc23)NC(=O)[C@H](Cc2ccc(O)cc2)NC(=O)[C@H](CCC(=O)O)NC1=O)[C@@H](C)O [Peptide S12P]

Source: article PMC6632053, “Incorporation of Putative Helix-Breaking Amino Acids in the Design of Novel Stapled Peptides: Exploring Biophysical and Cellular Permeability Properties” (Molecules, 2019)
